According to patent US7291609B2, “Specific glucocorticosteroid compound having anti-inflammatory activity” (Glaxo Group Limited, priority 2003, dated 2007):

How the values were obtained:
Format in all cases: cell-based
glucocorticoid receptor [1] = molecular target: T1, glucocorticoid receptor (Homo sapiens, UniProt P04150); test: NF-κB transrepression reporter assay (ELAM promoter-sPAP) in A549 cells; settings: compound 1 hour at 37° C., then TNF 10 ng/ml for 16 hours, read-out: EC50 (transrepressive activity)
T1 construct: A549 cells stably transfected with a reporter gene; endogenous in cells; host or cells: A549 cells (stably transfected with a reporter gene only)
T1 sequence (P04150 1-777): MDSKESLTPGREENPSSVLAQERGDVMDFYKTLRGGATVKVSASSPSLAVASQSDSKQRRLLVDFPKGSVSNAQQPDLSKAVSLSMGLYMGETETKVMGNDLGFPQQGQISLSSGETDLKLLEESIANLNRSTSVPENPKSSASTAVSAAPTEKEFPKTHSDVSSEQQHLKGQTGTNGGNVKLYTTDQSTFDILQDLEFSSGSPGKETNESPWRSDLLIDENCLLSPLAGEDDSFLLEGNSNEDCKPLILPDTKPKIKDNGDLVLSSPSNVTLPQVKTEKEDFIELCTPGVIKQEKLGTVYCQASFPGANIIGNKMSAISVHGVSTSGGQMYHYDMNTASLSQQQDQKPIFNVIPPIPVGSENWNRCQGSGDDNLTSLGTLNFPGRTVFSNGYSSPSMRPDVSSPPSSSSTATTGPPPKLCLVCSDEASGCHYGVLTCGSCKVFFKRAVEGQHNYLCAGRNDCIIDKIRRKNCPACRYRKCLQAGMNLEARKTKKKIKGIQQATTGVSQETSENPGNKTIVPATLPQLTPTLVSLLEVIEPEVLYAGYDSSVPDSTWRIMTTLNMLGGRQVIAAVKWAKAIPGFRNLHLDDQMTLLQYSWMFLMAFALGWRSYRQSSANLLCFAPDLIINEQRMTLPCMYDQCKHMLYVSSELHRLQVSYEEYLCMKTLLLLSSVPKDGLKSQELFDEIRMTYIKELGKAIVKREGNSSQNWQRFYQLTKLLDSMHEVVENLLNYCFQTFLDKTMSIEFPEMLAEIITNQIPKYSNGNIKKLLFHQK
Protocol: The functional assay based on that described by K. P. Ray et al., Biochem J. (1997), 328, 707-715 provides a measure of transrepressive activity of a glucocorticoid agonist. A549 cells stably transfected with a reporter gene containing the NF-κB responsive elements from the ELAM gene promoter coupled to sPAP (secreted alkaline phosphatase) are treated with test compounds at appropriate doses for 1 hour at 37° C. The cells are then stimulated with tumour necrosis factor (TNF, 10 ng/ml) for 16 hours, at which time the amount of alkaline phosphatase produced is measured by a standard colourimetric assay. Dose response curves are constructed from which EC50 values may be estimated.

glucocorticoid receptor [2] = molecular target: T1, glucocorticoid receptor; test: MMTV-LTR renilla luciferase transactivation reporter assay in A549 cells; settings: 6 hour at 37° C., read-out: maximal response relative to Dexamethasone (100%)
Protocol: The functional assay based on that described by R. J. H. Austin et al., Eur Resp J. (2002), 20, 1386-1392 measures the ability of compounds to directly transactivate gene expression. A549 cells stably transfected with a reporter gene containing the glucocorticoid responsive region of the mouse mammary tumour virus long terminal repeat (MMTV-LTR) coupled to renilla luciferase were treated with test compounds at appropriate doses for 6 hour at 37° C. The amount of luciferase activity present within the cells is then determined by measuring the light emitted following incubation with a suitable substrate.

Progesterone Receptor = molecular target: T2, Progesterone Receptor (Homo sapiens, UniProt P06401); test: Assay for progesterone receptor activity (alkaline phosphatase in T47D cells); settings: T47D human breast cancer cells, 24 hours at 37° C.; read-out: EC50 (alkaline phosphatase upregulation)
T2 construct: T47D cells were seeded into 96 well plates; endogenous in cells; host or cells: T47D human breast cancer cells
T2 sequence (P06401 1-933): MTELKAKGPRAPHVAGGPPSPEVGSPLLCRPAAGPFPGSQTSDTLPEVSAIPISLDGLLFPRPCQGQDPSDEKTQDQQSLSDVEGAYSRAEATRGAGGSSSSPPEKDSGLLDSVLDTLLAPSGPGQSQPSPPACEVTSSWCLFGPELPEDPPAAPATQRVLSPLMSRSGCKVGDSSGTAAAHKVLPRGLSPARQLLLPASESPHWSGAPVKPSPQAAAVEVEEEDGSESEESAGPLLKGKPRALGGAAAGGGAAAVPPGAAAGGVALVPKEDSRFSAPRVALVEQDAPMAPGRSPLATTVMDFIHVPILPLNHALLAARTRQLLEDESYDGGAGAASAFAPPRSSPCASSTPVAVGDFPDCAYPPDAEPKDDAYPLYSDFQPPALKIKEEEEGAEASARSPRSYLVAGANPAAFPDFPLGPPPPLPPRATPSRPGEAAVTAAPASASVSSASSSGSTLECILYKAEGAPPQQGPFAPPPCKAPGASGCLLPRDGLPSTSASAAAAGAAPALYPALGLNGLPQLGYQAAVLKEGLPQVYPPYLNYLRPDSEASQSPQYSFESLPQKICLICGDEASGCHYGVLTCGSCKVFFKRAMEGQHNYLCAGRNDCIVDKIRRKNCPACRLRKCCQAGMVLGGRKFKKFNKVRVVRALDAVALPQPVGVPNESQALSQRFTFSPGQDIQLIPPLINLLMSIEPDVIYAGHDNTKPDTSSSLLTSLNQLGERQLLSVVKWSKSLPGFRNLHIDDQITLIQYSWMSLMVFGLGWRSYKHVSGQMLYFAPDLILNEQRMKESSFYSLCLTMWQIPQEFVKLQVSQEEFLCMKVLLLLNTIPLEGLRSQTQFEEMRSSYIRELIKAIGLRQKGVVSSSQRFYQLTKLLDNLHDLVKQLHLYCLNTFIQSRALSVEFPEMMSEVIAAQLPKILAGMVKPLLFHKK

C[C@@H]1C[C@H]2[C@@H]3C[C@H](F)C4=CC(=O)C=C[C@]4(C)[C@@]3(F)[C@@H](O)C[C@]2(C)[C@@]1(OC(=O)C1C(C)(C)C1(C)C)C(=O)OCC#N [Example 1, 6α,9α-Difluoro-11β-hydroxy-16α-methyl-3-oxo-17α-(2,2,3,3-tetramethycyclopropylcarbonyl)oxy-androsta-1,4-diene-17β-carboxylic acid cyanomethyl ester]
EC50 (glucocorticoid receptor [1]): < 0.1 nM
Emax (glucocorticoid receptor [2]): < 5%
EC50 (Progesterone Receptor): > 100 nM
